Here are results for 28 compounds from US20260198495A1, “BINARY INSECTICIDE COMPOSITION AND USE THEREOF” (SHENYANG SINOCHEM AGROCHEMICALS R & D CO., LTD., priority 2022, published 2026).

Common to all, as to type: in vivo
In one data set the test system is Aphis craccivora nymphs. The data set can be described thus: Synergism screening (Bliss) of I-72 + pyrethroid insecticides, Example 38, Table 38. Conditions: for mortality at 0.15 µg/mL / mortality at 2 µg/mL / mortality at 3 µg/mL / mortality at 0.3 µg/mL / mortality at 1 µg/mL: Aphis craccivora, in Vicia faba, 48 h; for mortality at 0.15 µg/mL: read-out: Measured mortality rate (%), single pesticide, concentration 0.15 mg/L, broad bean seedling spraying; for mortality at 2 µg/mL: read-out: Measured mortality rate (%), single pesticide, concentration 2 mg/L, broad bean seedling spraying; for mortality at 3 µg/mL: read-out: Measured mortality rate (%), single pesticide, concentration 3 mg/L, broad bean seedling spraying; for Measured mortality rate (%): single pesticide, broad bean seedling spraying, 48 hours; for mortality at 0.3 µg/mL: read-out: Measured mortality rate (%), single pesticide, concentration 0.3 mg/L, broad bean seedling spraying; for mortality at 1 µg/mL: read-out: Measured mortality rate (%), single pesticide, concentration 1 mg/L, broad bean seedling spraying. As to the method:
Test target: Aphis craccivora nymphs, a sensitive strain reared indoors.
(§1) Preparation of the pesticide solution: according to different test requirements, the test samples were accurately weighed respectively with an electronic analytical balance. The technical pesticides were dissolved in acetone, and then diluted with 0.1% Tween 80 water into a series of pesticide solutions with a certain concentration gradient according to the experimental design dosage.
Experimental method: first, broad bean seedlings with uniform and consistent Aphis craccivora were selected, with about 30-40 insects on each seedling. Then, they were evenly sprayed with the pesticide solution in the order from low dosage to high dosage according to the experimental design, with 1.5 mL of the solution for each leaf and 3 replicates for each treatment. In addition, a blank control (CK) was set up.
The treated test materials were placed in an observation room, and the temperature, humidity and illumination of the observation room could be adjusted as needed. The number of dead and alive insects was investigated 48 hours later, and the corrected mortality rate was calculated using the Abbott's formula.
(§2) The synergism of the mixture was evaluated by adopting the Bliss method, as in Example 5.

Data set [1] deals with 3rd-instar larvae of Yponomeuta evonymallus (Linnaeus). The experiment in a line: Synergism screening (Bliss) of I-72 + pyrethroid insecticides, Example 37, Table 37. The settings on record: single pesticide, leaf dipping, 72 hours. As to the method: Test target: 3rd-instar larvae of Yponomeuta evonymallus (Linnaeus).
as §1
Experimental method: Firstly, Hylotelephium spectabile leaves were selected and dipped into the prepared pesticide solutions for 10 s in the order from low dosage to high dosage according to the experimental design. After natural air-drying in the shade, they were placed in a 9-cm-diameter Petri dish with filter paper, and uniform and healthy test insects were introduced, with 10 insects for each treatment and 3 replicates for each treatment. In addition, a blank control (CK) was set up.
(§3) The treated test materials were placed in an observation room, and the temperature, humidity and illumination of the observation room could be adjusted as needed. The number of dead and alive insects was investigated 72 hours later, and the corrected mortality rate was calculated using the Abbott's formula.
(§4) The synergism of the mixture was evaluated by the Bliss method. According to the concept of independent joint action he proposed, Bliss believes that the theoretical mortality rate P when insecticides are used in combination can be calculated by the following formula: […]
(§5) Pm is the measured mortality rate (%) of the target when the first active ingredient is at a concentration of m; and Pn is the measured mortality rate (%) of the target when the second active ingredient is used at a concentration of n.
(§6) If the actual mortality rate of the target after the two active ingredients are mixed at a certain concentration is greater than theoretical mortality rate P, it is determined that the two active ingredients have a synergistic effect when used in combination at the set concentration, and otherwise, they have an antagonistic effect.

For data set [2], the system named is 2nd-instar larvae of Plutella xylostella. The data set can be described thus: Synergism screening (Bliss) of I-72 + insect attractants and insecticides, Example 49, Table 49. The settings on record: for Measured mortality rate: single pesticide, 72 hours. As to the method: (§7) Test target: 2nd-instar larvae of Plutella xylostella.
as §1
Experimental method: first, cabbage leaves were selected and dipped in the prepared pesticide solution for 10 s in the order from low dosage to high dosage according to the experimental design. After natural air-drying in the shade, they were placed in a 9-cm-diameter Petri dish with filter paper, and uniform and healthy test insects were introduced, with 10 insects for each treatment and 3 replicates for each treatment. In addition, a blank control CK was set up.
as §3, §2

The test system is the same in data set [3]. The data set can be described thus: whole plant or invertebrate. The settings on record: for Measured mortality rate: single pesticide, 72 hours; for mortality at 0.025 µg/mL / mortality at 0.5 µg/mL / mortality at 10 µg/mL / mortality at 0.01 µg/mL / mortality at 25 µg/mL: Plutella xylostella, 72 h, read-out: Measured mortality rate. As to the method: as §7, §1
Experimental method: first, cabbage leaves were selected and dipped in the prepared pesticide solution for 10 s in the order from low dosage to high dosage according to the experimental design. After natural air-drying in the shade, they were placed in a 9-cm-diameter Petri dish with filter paper, and uniform and healthy test insects were introduced, with 10 insects for each treatment and 3 replicates for each treatment. In addition, a blank control (CK) was set up.
as §3, §4, §5, §6

Setting [4] is: Plutella xylostella, 72 h, read-out: Measured mortality rate.

As for `Cc1c(COC(=O)[C@@H]2[C@H](/C=C(\Cl)C(F)(F)F)C2(C)C)cccc1-c1ccccc1` (racemic) [Bifenthrin], in the data set with Aphis craccivora nymphs, the mortality at 0.15 µg/mL is 10%, the mortality at 2 µg/mL worked out at 49.1% and the mortality at 3 µg/mL is 62%.
For the compound `CC1(C)[C@H](C(=O)O[C@H](C#N)c2cccc(Oc3ccccc3)c2)[C@@H]1/C=C(\Cl)C(F)(F)F` (racemic) [Lambda-cyhalothrin], the entries for the “Measured mortality rate (%)” value in data set [1] (concentration 0.25 mg/L), in data set [1] (concentration 2 mg/L) and in data set [1] (concentration 5 mg/L) were 16.1%, 39.3% and 53.3%, respectively.
For the compound `CC1(C)C(C=C(Cl)Cl)C1C(=O)OC(C#N)c1cccc(Oc2ccccc2)c1` (stereo not drawn) [Alpha-cypermethrin], the “Measured mortality rate (%)” value in data set [1] (concentration 0.5 mg/L) was 9.1%; in data set [1] (concentration 1 mg/L), 19.4%; in data set [1] (concentration 5 mg/L), 43.8%.
In the same order, the values of `CC1(C)C(C=C(Cl)Cl)C1C(=O)OC(C#N)c1ccc(F)c(Oc2ccccc2)c1` (stereo not drawn) [Beta-cyfluthrin] are 12.9%, 21.4% and 51.6%.
`CC1(C)[C@H](C=C(Cl)Cl)[C@H]1C(=O)O[C@@H](C#N)c1cccc(Oc2ccccc2)c1` [Beta-cypermethrin]: the figures for the “Measured mortality rate (%)” value with Aphis craccivora nymphs (concentration 0.3 mg/L) and in the data set on Aphis craccivora nymphs (concentration 1 mg/L) were 16.1% and 49.7%, respectively.
Regarding `CC12CCC(CC1=O)C2(C)C` (stereo not shown) [Camphor], in data set [2] (setting [4]), the mortality at 0.002 µg/mL was 7.4%, the mortality at 0.1 µg/mL came out at 9.7% and the mortality at 5 µg/mL was determined as 13.8%.
Take `O=C(NC(=O)c1ccccc1Cl)Nc1ccc(Cl)cc1` [Chlorbenzuron]: the figures for the Measured mortality rate in data set [3] (0.01 mg/L), in data set [3] (0.5 mg/L) and in data set [3] (25 mg/L) were 6.5%, 14.8% and 25.8%, respectively.
Turning to `O=C(NC(=O)c1c(F)cccc1F)Nc1cc(Cl)c(Oc2ncc(C(F)(F)F)cc2Cl)c(Cl)c1` [Chlorfluazuron], in data set [3], the mortality at 0.025 µg/mL stood at 3.4%, the mortality at 0.5 µg/mL is 10.3% and the mortality at 10 µg/mL worked out at 24.1%.
With `CC1(C)C(C=C(Cl)Cl)C1C(=O)OC(C#N)c1ccc(F)c(Oc2ccccc2)c1` (stereo not shown) [Cyfluthrin], the “Measured mortality rate (%)” value in data set [1] (concentration 0.5 mg/L) stood at 10.0%; in data set [1] (concentration 1 mg/L) it was 18.8%; in data set [1] (concentration 5 mg/L), 48.4%.
For the compound `CC1(C)C(C=C(Cl)Cl)C1C(=O)OC(C#N)c1cccc(Oc2ccccc2)c1` (stereo not shown) [Cypermethrin], in the data set with Aphis craccivora nymphs, the mortality at 0.15 µg/mL is 13.3% and the mortality at 2 µg/mL turned out to be 60.9%.
Turning to `CC1(C)[C@H](C(=O)O[C@H](C#N)c2cccc(Oc3ccccc3)c2)[C@@H]1C=C(Br)Br` [Deltamethrin], in the data set with Aphis craccivora nymphs, the mortality at 0.3 µg/mL was 17.3%, the mortality at 1 µg/mL is 28% and the mortality at 3 µg/mL amounted to 61.4%.
As to `CC(C)c1cc(Oc2ccccc2)cc(C(C)C)c1NC(=S)NC(C)(C)C` [Diafenthiuron], in data set [3], the mortality at 0.025 µg/mL was determined as 6.3%, the mortality at 0.5 µg/mL came out at 13.3% and the mortality at 10 µg/mL stood at 21.4%.
For the compound `O=C(NC(=O)c1c(F)cccc1F)Nc1ccc(Cl)cc1` [Diflubenzuron], in data set [3], the mortality at 0.01 µg/mL was 11.1%, the mortality at 0.5 µg/mL amounted to 12.9% and the mortality at 25 µg/mL worked out at 31%.
On to `CC(C)[C@H](C(=O)O[C@H](C#N)c1cccc(Oc2ccccc2)c1)c1ccc(Cl)cc1` [Esfenvalerate], for which the “Measured mortality rate (%)” value came to 9.4% in data set [1] (concentration 0.5 mg/L), 13.8% in data set [1] (concentration 1 mg/L) and 40.0% in data set [1] (concentration 5 mg/L).
On to `CCOc1ccc(C(C)(C)COCc2cccc(Oc3ccccc3)c2)cc1` [Etofenprox], for which, in the data set on Aphis craccivora nymphs, the mortality at 0.15 µg/mL came out at 14% and the mortality at 2 µg/mL was found to be 49.5%.
Take `CC1(C)C(C(=O)OC(C#N)c2cccc(Oc3ccccc3)c2)C1(C)C` (stereo not shown) [Fenpropathrin]: the “Measured mortality rate (%)” value in data set [1] (concentration 0.5 mg/L) is 13.3%; in data set [1] (concentration 1 mg/L), 22.6%; in data set [1] (concentration 5 mg/L), 40.7%.
Consider `CC(C)C(C(=O)OC(C#N)c1cccc(Oc2ccccc2)c1)c1ccc(Cl)cc1` (stereo not shown) [Fenvalerate], for which, in the data set with Aphis craccivora nymphs, the mortality at 0.3 µg/mL came out at 14.7%, the mortality at 1 µg/mL is 29% and the mortality at 3 µg/mL was determined as 51.1%.
For `N#Cc1nn(-c2c(Cl)cc(C(F)(F)F)cc2Cl)c(N)c1[S+]([O-])C(F)(F)F` (stereo not shown) [Fipronil], in data set [2] (setting [4]), the mortality at 0.01 µg/mL was determined as 6.7%, the mortality at 0.1 µg/mL turned out to be 16.7% and the mortality at 1 µg/mL came to 27.6%.
On to `O=C(NC(=O)c1c(F)cccc1F)Nc1ccc(Oc2ccc(C(F)(F)F)cc2Cl)cc1F` [Flufenoxuron], for which, in data set [3], the mortality at 0.01 µg/mL worked out at 9.7%, the mortality at 0.5 µg/mL worked out at 10.7% and the mortality at 25 µg/mL came out at 27.6%.
Take `CON=CNC(=O)c1ccc(C2=NOC(c3cc(Cl)cc(Cl)c3)(C(F)(F)F)C2)cc1C` (stereo not shown) [Fluxametamide]: the Measured mortality rate amounted to 6.9% in data set [2] (0.01 mg/L), 48.4% in data set [2] (0.1 mg/L) and 75.9% in data set [2] (1 mg/L).
On to `CC1(C)[C@H](C(=O)O[C@H](C#N)c2cccc(Oc3ccccc3)c2)[C@@H]1/C=C(\Cl)C(F)(F)F` [Gamma-cyhalothrin], for which the “Measured mortality rate (%)” value is listed as 6.9% in data set [1] (concentration 0.1 mg/L) and 48.3% in data set [1] (concentration 5 mg/L).
As for `O=C(NC(=O)c1c(F)cccc1F)Nc1cc(Cl)c(OC(F)(F)C(F)F)c(Cl)c1` [Hexaflumuron], in data set [3], the mortality at 0.025 µg/mL came out at 6.7%, the mortality at 0.5 µg/mL turned out to be 13.8% and the mortality at 10 µg/mL is 22.6%.
With `O=C(NC(=O)c1c(F)cccc1F)Nc1cc(Cl)c(OC(F)(F)C(F)C(F)(F)F)cc1Cl` (stereo not shown) [Lufenuron], in data set [3], the mortality at 0.025 µg/mL came to 7.4%, the mortality at 0.5 µg/mL was found to be 12.5% and the mortality at 10 µg/mL came to 20.7%.
For the compound `CC1(C)C(C=C(Cl)Cl)C1C(=O)OCc1cccc(Oc2ccccc2)c1` (stereo not shown) [Permethrin], in the data set on Aphis craccivora nymphs, the mortality at 0.3 µg/mL was 12%, the mortality at 1 µg/mL is 25.3% and the mortality at 3 µg/mL stood at 64.8%.
With `CC1(C)[C@H](C=C(Cl)Cl)[C@H]1C(=O)O[C@H](C#N)c1cccc(Oc2ccccc2)c1` [Theta-cypermethrin], the “Measured mortality rate (%)” value in data set [1] (concentration 0.5 mg/L) came out at 10.3%; in data set [1] (concentration 1 mg/L) it was 16.7%; in data set [1] (concentration 5 mg/L), 46.4%.
Regarding `O=C(NC(=O)c1ccccc1Cl)Nc1ccc(OC(F)(F)F)cc1` [Triflumuron], in data set [3], the mortality at 0.025 µg/mL turned out to be 6.9%, the mortality at 0.5 µg/mL is 13.8% and the mortality at 10 µg/mL was 17.2%.
On to `CC1(C)C(C=C(Cl)Cl)C1C(=O)OC(C#N)c1cccc(Oc2ccccc2)c1` (stereo not shown) [Zeta-cypermethrin], for which the “Measured mortality rate (%)” value in the data set on Aphis craccivora nymphs (concentration 0.15 mg/L) was determined as 17.1%; in the data set on Aphis craccivora nymphs (concentration 2 mg/L), 64.5%.
In the case of Pyrethrin, the figures for the “Measured mortality rate (%)” value in the data set on Aphis craccivora nymphs (concentration 0.3 mg/L), in the data set with Aphis craccivora nymphs (concentration 1 mg/L) and in the data set on Aphis craccivora nymphs (concentration 3 mg/L) were 15.6%, 25.6% and 63.0%, respectively.
